Data on three compounds can be found in ChEMBL document CHEMBL1201862, “PubChem BioAssay data set” (2004).

The source made the active and inactive calls. A value given as a limit tells only on which side of the number the result lay.

Test [1] addresses Dual specificity mitogen-activated protein kinase kinase 1 (Homo sapiens, UniProt Q02750). The experiment in a line: Navigating the Kinome. Panel member name: MAP2K1. In kind it is functional.
Test [2] in a line: Dose-response inhibition of insulin secretion in a rat insulinoma line at 5 mM glucose (AID 1117331). It counts as functional, cell-based. To be noted: INS-1E.
In test [3] the target is Calcium/calmodulin-dependent protein kinase kinase 2 (Homo sapiens, UniProt Q96RR4). The experiment in a line: Navigating the Kinome. Panel member name: CAMKK2. In kind it is functional.
Test [4] has as its target Calcium/calmodulin-dependent protein kinase type II subunit alpha (Homo sapiens, UniProt Q9UQM7). Description: Navigating the Kinome. Panel member name: CAMK2A. It counts as functional.
The target in test [5] is Serine/threonine-protein kinase PAK 1 (Homo sapiens, UniProt Q13153). In kind it is functional.
The target in test [6] is Serine/threonine-protein kinase PAK 4 (Homo sapiens, UniProt O96013). It counts as functional.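 Note: value obtained within a kinome profiling panel in which PAK4 was one of the panel members.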
The target in test [7] is Calcium/calmodulin-dependent protein kinase type II subunit beta (Homo sapiens, UniProt Q13554). It counts as functional.
Test [8] addresses Cyclin-dependent kinase 2 (Homo sapiens, UniProt P24941). In kind it is functional.
Test [9] has as its target Serine/threonine-protein kinase MRCK alpha (Homo sapiens, UniProt Q5VT25). It counts as functional.
The target of test [10] is Tyrosine-protein kinase Lyn (Homo sapiens, UniProt P07948). In kind it is functional.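 Note: lyn as one member of a kinase panel.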
For test [11], the target named is Tyrosine-protein kinase Srms (Homo sapiens, UniProt Q9H3Y6). It counts as functional.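 Note: SRMS measured as one member of a kinome-wide kinase profiling panel.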
The target of test [12] is Serine/threonine-protein kinase Chk2 (Homo sapiens, UniProt O96017). In kind it is functional.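 Note: CHEK2 entry within a kinome-wide screening panel.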
Test [13] deals with Homeodomain-interacting protein kinase 2 (Homo sapiens, UniProt Q9H2X6). In kind it is functional.
Test [14] addresses T1, Serine/threonine-protein kinase BRSK1 (Homo sapiens, UniProt Q8TDC3).
T1 sequence (Q8TDC3 whole entry): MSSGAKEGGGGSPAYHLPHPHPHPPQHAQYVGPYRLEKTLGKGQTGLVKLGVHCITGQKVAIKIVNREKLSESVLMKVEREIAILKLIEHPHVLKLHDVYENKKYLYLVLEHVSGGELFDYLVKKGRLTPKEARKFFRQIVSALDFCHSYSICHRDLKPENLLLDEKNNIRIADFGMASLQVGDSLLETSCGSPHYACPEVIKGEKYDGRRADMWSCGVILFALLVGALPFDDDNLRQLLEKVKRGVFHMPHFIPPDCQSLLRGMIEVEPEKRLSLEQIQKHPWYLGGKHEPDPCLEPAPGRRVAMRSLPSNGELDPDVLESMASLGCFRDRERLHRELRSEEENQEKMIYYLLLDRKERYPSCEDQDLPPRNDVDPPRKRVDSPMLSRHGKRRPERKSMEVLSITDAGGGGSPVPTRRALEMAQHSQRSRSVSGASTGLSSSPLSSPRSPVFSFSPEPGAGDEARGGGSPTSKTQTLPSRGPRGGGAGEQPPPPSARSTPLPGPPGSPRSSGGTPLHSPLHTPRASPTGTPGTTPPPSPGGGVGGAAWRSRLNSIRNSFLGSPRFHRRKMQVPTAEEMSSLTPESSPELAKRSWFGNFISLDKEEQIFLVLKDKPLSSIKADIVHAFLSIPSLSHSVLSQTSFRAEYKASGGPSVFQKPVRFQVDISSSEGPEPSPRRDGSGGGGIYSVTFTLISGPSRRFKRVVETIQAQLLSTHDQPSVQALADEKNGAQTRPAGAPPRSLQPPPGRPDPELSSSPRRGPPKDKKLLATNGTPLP
It counts as functional.

Test [15] concerns the target RAC-gamma serine/threonine-protein kinase (Homo sapiens, UniProt Q9Y243). In kind it is functional.
Test [16] deals with Protein-tyrosine kinase 2-beta (Homo sapiens, UniProt Q14289). It counts as functional.
Test [17] has as its target Eukaryotic elongation factor 2 kinase (Homo sapiens, UniProt O00418). It counts as functional.
Test [18] has as its target Tyrosine-protein kinase Lck (Homo sapiens, UniProt P06239). It counts as functional.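 Note: lck was assayed as one member of a kinase panel.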
Test [19] has as its target Glycogen synthase kinase-3 beta (Homo sapiens, UniProt P49841). In kind it is functional.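 Note: value comes from a broad kinome profiling panel, with GSK3B as the panel member.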
Test [20] has as its target Tyrosine-protein kinase FRK (Homo sapiens, UniProt P42685). In kind it is functional.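 Note: FRK tested as one member of a kinome panel.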
The target in test [21] is Phosphorylase b kinase gamma catalytic chain, liver/testis isoform (Homo sapiens, UniProt P15735). In kind it is functional.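 Note: PHKG2 measured as one member of a kinome-wide kinase panel.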
Test [22] has as its target Cyclin-dependent kinase 1 (Homo sapiens, UniProt P06493). It counts as functional.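 Note: Kinome-wide panel profiling, with the target listed as panel member CDC2.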
Test [23] concerns the target Leukocyte tyrosine kinase receptor (Homo sapiens, UniProt P29376). Description: Navigating the Kinome. Panel member name: LTK. In kind it is functional.
For test [24], the target named is Dual specificity protein kinase CLK4 (Homo sapiens, UniProt Q9HAZ1). It counts as functional.
Test [25] addresses Serine/threonine-protein kinase pim-3 (Homo sapiens, UniProt Q86V86). In kind it is functional.
The target of test [26] is Cyclin-dependent kinase 9 (Homo sapiens, UniProt P50750). In kind it is functional.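 Note: value from the CDK9 entry of a kinome-spanning kinase panel.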
For test [27], the target named is G protein-coupled receptor kinase 5 (Homo sapiens, UniProt P34947). Description: Navigating the Kinome. Panel member name: GPRK5. In kind it is functional.
Test [28] addresses Serine/threonine-protein kinase pim-1 (Homo sapiens, UniProt P11309). It counts as functional.
Test [29] concerns the target Mitogen-activated protein kinase 14 (Homo sapiens, UniProt Q16539). It counts as functional.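 Note: part of a kinome-wide panel, MAPK14 entry.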
Test [30] deals with Platelet-derived growth factor receptor alpha (Homo sapiens, UniProt P16234). Description: Navigating the Kinome. Panel member name: PDGFRA. It counts as functional.
Test [31] addresses Cyclin-dependent kinase 7 (Homo sapiens, UniProt P50613). In kind it is functional.
Test [32] addresses Dual specificity tyrosine-phosphorylation-regulated kinase 1B (Homo sapiens, UniProt Q9Y463). The experiment in a line: Navigating the Kinome. Panel member name: DYRK1B. In kind it is functional.
For test [33], the target named is Serine/threonine-protein kinase TBK1 (Homo sapiens, UniProt Q9UHD2). Description: Navigating the Kinome. Panel member name: TBK1. In kind it is functional.

Chain of RAC-gamma serine/threonine-protein kinase (Q9Y243 whole entry): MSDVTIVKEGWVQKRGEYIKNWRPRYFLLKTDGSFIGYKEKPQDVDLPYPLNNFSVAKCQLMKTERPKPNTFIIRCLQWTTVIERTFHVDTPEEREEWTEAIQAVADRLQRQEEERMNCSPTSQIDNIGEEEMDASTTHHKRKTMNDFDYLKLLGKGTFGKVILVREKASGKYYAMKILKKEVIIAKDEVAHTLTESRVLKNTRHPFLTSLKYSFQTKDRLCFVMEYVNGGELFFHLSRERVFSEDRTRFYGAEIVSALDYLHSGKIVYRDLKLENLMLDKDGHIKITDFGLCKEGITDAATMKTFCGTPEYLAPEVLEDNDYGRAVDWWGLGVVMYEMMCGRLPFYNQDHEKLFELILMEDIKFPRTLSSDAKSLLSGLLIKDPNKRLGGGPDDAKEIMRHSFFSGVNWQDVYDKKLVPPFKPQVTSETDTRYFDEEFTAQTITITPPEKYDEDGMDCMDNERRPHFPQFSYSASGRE
Chain of Tyrosine-protein kinase FRK (P42685 whole entry, canonical isoform): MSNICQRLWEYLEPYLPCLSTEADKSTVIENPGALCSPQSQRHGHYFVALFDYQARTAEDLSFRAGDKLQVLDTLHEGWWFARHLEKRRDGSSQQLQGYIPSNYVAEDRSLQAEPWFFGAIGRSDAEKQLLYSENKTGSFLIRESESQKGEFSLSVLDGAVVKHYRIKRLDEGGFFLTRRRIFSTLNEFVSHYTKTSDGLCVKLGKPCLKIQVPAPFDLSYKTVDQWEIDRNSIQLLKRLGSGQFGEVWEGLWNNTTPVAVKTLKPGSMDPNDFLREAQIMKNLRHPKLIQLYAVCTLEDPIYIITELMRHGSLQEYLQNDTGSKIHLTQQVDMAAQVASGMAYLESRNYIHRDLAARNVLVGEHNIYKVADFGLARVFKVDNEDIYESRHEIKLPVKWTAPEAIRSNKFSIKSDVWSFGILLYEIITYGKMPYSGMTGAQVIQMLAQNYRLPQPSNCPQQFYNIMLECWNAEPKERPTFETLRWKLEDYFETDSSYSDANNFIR
Chain of Homeodomain-interacting protein kinase 2 (Q9H2X6 whole entry): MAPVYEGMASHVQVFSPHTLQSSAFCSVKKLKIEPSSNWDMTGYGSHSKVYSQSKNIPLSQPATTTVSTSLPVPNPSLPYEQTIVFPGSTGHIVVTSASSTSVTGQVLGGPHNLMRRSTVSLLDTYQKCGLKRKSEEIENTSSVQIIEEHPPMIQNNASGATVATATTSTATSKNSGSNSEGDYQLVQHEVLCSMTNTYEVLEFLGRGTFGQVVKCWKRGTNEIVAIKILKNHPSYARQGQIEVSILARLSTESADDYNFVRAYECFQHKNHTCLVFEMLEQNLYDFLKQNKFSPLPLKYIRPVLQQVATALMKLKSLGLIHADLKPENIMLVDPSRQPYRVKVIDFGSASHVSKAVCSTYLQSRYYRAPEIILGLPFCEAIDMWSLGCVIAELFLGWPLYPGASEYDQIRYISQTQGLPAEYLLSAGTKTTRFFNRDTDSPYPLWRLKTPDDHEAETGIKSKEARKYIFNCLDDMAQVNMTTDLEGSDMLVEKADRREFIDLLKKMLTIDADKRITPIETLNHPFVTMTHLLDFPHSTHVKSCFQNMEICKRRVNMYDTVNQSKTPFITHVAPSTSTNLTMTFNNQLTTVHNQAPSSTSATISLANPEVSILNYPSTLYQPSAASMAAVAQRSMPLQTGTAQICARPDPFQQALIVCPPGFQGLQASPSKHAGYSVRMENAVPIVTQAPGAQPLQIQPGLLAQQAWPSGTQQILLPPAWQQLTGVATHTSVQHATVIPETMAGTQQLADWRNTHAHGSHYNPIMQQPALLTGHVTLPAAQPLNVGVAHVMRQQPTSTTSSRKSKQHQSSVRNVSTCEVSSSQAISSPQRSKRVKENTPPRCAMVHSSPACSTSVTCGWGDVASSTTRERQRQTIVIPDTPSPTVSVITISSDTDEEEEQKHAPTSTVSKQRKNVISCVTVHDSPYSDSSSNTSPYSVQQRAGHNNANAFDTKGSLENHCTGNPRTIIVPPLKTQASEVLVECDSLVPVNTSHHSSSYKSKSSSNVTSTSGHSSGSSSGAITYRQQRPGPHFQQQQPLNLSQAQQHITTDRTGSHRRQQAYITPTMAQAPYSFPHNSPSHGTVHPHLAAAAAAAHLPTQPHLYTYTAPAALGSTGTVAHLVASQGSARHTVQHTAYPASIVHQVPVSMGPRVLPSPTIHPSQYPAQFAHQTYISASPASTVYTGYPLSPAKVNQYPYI
Chain of Serine/threonine-protein kinase MRCK alpha (Q5VT25 whole entry): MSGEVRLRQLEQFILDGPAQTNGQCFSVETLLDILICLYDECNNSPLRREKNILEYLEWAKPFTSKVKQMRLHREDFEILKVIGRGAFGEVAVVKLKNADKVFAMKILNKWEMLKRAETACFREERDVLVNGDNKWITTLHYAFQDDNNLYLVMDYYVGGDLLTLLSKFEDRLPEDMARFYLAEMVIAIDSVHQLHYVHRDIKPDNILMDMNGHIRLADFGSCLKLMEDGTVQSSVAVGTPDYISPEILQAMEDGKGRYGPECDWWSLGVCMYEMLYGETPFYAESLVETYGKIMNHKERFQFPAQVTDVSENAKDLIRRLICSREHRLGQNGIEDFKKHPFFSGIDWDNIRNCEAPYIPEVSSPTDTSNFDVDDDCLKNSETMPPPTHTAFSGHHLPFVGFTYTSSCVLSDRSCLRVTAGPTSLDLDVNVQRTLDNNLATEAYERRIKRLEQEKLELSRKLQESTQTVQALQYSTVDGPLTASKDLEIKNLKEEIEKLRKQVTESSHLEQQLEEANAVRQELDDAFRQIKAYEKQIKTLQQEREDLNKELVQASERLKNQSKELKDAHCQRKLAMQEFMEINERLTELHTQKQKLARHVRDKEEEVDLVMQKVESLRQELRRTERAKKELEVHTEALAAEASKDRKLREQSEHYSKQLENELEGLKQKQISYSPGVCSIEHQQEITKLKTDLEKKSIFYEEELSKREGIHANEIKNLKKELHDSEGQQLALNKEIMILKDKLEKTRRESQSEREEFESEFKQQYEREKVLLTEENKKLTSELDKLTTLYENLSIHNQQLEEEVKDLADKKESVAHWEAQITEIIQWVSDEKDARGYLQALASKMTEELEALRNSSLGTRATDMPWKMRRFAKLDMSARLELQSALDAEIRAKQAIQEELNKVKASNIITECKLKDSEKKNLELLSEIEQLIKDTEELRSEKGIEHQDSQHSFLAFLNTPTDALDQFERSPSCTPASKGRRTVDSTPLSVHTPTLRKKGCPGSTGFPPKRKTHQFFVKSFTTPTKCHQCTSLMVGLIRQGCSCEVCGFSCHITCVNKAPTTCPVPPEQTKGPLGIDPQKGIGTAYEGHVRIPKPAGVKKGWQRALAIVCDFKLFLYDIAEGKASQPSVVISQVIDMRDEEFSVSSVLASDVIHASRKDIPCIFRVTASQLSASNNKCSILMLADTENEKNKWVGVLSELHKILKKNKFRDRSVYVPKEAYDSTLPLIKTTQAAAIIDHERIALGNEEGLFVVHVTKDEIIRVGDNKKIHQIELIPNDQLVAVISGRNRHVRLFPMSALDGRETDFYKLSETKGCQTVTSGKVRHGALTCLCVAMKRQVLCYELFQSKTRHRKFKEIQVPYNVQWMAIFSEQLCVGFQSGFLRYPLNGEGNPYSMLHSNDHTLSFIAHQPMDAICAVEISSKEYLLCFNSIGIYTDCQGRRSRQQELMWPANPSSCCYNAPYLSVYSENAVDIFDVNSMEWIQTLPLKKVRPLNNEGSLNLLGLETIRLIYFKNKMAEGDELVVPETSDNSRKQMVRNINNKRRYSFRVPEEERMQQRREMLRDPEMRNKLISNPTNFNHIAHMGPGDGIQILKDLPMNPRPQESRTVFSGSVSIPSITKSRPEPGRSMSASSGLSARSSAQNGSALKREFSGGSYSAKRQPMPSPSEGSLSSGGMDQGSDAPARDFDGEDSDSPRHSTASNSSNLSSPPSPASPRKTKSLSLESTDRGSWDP
Chain of Glycogen synthase kinase-3 beta (P49841 whole entry): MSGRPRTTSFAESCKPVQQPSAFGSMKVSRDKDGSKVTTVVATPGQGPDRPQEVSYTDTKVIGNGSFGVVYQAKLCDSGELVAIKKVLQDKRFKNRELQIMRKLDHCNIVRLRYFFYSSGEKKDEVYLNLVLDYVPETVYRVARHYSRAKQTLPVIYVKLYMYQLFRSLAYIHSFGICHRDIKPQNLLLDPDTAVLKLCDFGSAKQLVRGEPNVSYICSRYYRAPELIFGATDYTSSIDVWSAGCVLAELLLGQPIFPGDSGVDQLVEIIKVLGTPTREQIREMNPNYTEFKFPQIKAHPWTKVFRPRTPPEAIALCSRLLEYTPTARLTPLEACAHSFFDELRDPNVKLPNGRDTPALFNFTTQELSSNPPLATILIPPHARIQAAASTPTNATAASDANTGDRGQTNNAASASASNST
Chain of Serine/threonine-protein kinase Chk2 (O96017 whole entry): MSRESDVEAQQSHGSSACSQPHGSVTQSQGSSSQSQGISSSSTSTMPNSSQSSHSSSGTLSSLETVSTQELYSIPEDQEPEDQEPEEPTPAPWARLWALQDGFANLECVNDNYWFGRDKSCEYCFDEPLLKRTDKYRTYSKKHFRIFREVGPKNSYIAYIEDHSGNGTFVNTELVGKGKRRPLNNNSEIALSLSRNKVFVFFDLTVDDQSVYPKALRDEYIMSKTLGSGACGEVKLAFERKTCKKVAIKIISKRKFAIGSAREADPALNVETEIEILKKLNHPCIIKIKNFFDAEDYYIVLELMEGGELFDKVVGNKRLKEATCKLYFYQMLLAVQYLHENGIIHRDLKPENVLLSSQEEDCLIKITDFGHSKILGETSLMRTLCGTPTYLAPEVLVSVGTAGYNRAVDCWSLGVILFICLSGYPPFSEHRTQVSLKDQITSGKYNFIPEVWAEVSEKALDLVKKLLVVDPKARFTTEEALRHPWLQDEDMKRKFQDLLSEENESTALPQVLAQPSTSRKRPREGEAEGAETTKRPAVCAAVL

Consider `Cc1ccc(-n2nc(C(C)(C)C)cc2NC(=O)Nc2ccc(OCCN3CCOCC3)c3ccccc23)cc1` [DORAMAPIMOD], for which the figures for the Ki in test [1], in [3] and in [4] were > 3160 nM (inactive), > 2510 nM (inactive) and > 3980 nM (inactive), respectively. The IC50 in test [2] was > 33300 nM (inactive).

On to `NC(COc1cncc(-c2ccc3c(c2)C(=Cc2ccco2)C(=O)N3)c1)Cc1c[nH]c2ccccc12` (stereo unspecified), for which the Ki in test [5] was 398 nM (active); in test [6] it was 1260 nM (active); in [7] it was 251 nM (active); in test [8], 126 nM (active); in test [9] it was 316 nM (active); in [10] it was 316 nM (active). The Ki is > 1580 nM (inactive) in test [11]; 50.1 nM (active) in [12]; 39.8 nM (active) in test [13]; 158 nM (active) in [14]; 5.01 nM (active) in test [15]; > 1580 nM (inactive) in [16]. The Ki is 1260 nM (active) in [17]; 398 nM (active) in test [18]; 63.1 nM (active) in test [19]; 316 nM (active) in test [20]; 12.6 nM (active) in [21]; 251 nM (active) in test [22].

`NC(=O)c1cc(-c2ccnc(N)n2)[nH]c1-c1ccc(Cl)cc1Cl`: the Ki was > 10000 nM (inactive) in test [5]; 2000 nM (active) in [1]; > 5010 nM (inactive) in test [6]; > 2510 nM (inactive) in [23]; 0.631 nM (active) in test [24]; 398 nM (active) in test [25]. Moreover, the Ki in [9] was 1260 nM (active); in test [26] it was 3.98 nM (active); in test [27] it was 2510 nM (active); in test [28] it was 1580 nM (active); in test [29], > 3980 nM (inactive); in [11], > 1580 nM (inactive). Also, the Ki was > 2510 nM (inactive) in [30]; 1260 nM (active) in test [12]; 25.1 nM (active) in test [13]; 6310 nM (active) in [14]; 6310 nM (active) in [15]; > 7940 nM (inactive) in [4]. The Ki in test [31] is 158 nM (active); in [32], 0.631 nM (active); in [19] it was 6.31 nM (active); in test [20] it was 2000 nM (active); in test [33] it was > 3160 nM (inactive); in test [21] it was > 5010 nM (inactive). Further, the pKi in [1] is 5.7; in test [24], 9.2; in test [25], 6.4; in [9] it was 5.9; in [26], 8.4; in test [27], 5.6. Besides, the pKi worked out at 5.8 in [28]; 5.9 in [12]; 7.6 in test [13]; 5.2 in test [14]; 5.2 in test [15]; 6.8 in test [31]. In addition, the pKi in [32] is recorded as 9.2; in test [19], 8.2; in [20] it was 5.7.
